# Data: patent publication US7691392B2 (Kosan Biosciences Incorporated, priority 2005, dated 2010)
# Tests used:
# [1] = Cellular assays, relative potency of 17-AAG and 17-AG; type: cell-based; settings: 17-AAG versus 17-AG
# [2] = patients treated at 56 mg/m^2 17-AAG; cited from earlier work
# [3] = Plasma pharmacokinetics of 17-AAG and 17-AG in the open-label dose escalating trial in MM patients
# Procedure: The total number of PK samples collected was approximately 110 mL of whole blood (7-8 tablespoons). If a patient experienced a potentially drug-related SAE, additional PK samples were collected. Blood was drawn from the contralateral arm to the infusion site using an indwelling catheter to avoid multiple needle sticks. […] The blood tube was inverted several times, and the tube placed in wet ice immediately pending separation of the plasma. If a catheter was used for blood collection, the fluid in the catheter was completely withdrawn prior to each sample collection and discarded. Plasma samples were kept on wet ice during collection and centrifugation. Plasma samples were split into two cryovials prior to freezing at −70° C.
# The PK analysis was performed as follows. […] PK parameters were calculated on plasma concentration time data by non-compartmental analysis using Kinetica version 4.3 software (Innaphase, Champs sur Marne, France). AUC was calculated by the mixed log-linear rule: the linear rule was applied to the range where concentration was ascending and the log-linear rule was applied to the range where the concentration was descending. AUClast is the area from t=0 to tlast, the last sampling time. AUCextra is the extrapolated area from AUClast to infinity and AUCtotal=AUClast+AUCextra and is also named AUC0-∞ area under the concentration-time curve from time zero to infinity. The terminal rate constant λz was calculated on at least three points on the elimination curve with values greater than the lower limit of quantitation. […] Table 5 lists the areas, Cmax, and half-life for the metabolite 17-AG (mean±one standard deviation). […] There was no dose dependency for half-life, clearance or distributive volumes for these dose administrations.
compound,measurement,setting,value
"CO[C@H]1/C=C\C=C(/C)C(=O)NC2=CC(=O)C(N)=C(C[C@@H](C)C[C@H](OC)[C@H](O)[C@@H](C)/C=C(\C)[C@@H]1OC(N)=O)C2=O [17-AG, 17-aminogeldanamycin]",relative potency in cellular assays,[1],equipotent
same,Vz,[2],203 L/m^2
same,clearance,[2],30.8 L/h/m^2
same,time post infusion from which plasma level of 17-AG exceeded the parent drug,[3]; 220 mg/m^2 cohort,approximately 7 hours
same,change of AUCtotal between Day 1 and Day 11,"[3]; 17 patients, first vs fourth infusion",no pattern of increase or decrease
same,dose proportionality of Cmax,[3]; 150-340 mg/m^2 17-AAG,did not increased in a dose proportional manner
same,time post infusion from which plasma level of 17-AG exceeded the parent drug,[3]; 150 and 275 mg/m^2 cohorts,approximately 3 hours
same,half-life,"[3]; human, plasma, intravenous",4.6 to 5.4 h
